The target of test [1] is T1, V143A mutant mouse 5-HT3ASR (Mus musculus, UniProt P23979, V144A).
T1 sequence (P23979 24-483 isoform P23979-2 V144A): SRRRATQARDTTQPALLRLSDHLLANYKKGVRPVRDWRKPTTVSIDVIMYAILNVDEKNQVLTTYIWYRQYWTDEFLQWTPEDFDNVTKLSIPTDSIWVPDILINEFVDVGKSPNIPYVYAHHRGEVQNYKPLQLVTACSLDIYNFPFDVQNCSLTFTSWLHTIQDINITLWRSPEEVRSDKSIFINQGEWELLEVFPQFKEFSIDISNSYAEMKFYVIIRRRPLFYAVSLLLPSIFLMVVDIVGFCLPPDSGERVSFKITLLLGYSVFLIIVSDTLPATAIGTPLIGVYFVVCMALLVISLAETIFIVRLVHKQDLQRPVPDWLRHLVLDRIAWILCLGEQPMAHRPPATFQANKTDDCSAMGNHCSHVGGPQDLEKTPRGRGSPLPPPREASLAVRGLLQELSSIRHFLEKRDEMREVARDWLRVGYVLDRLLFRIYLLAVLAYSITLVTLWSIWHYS
Kind of test: [^3H]granisetron saturation binding, V143A receptor. Particulars: ± SE.

Test [2] deals with T2, Y140A mutant mouse 5-HT3ASR (Mus musculus, UniProt P23979, Y141A).
T2 sequence (P23979 24-483 isoform P23979-2 Y141A): T1 sequence (P23979 24-483 isoform P23979-2 V144A) with Y118A, A121V
Kind of test: [^3H]granisetron saturation binding, Y140A receptor. The settings on record: ± SE.

For test [3], the target named is T3, R146A mutant mouse 5-HT3ASR (Mus musculus, UniProt P23979, R147A).
T3 sequence (P23979 24-483 isoform P23979-2 R147A): T1 sequence (P23979 24-483 isoform P23979-2 V144A) with A121V, R124A
Kind of test: [^3H]granisetron saturation binding, R146A receptor. Particulars: ± SE.

Test [4] has as its target T4, V149A mutant mouse 5-HT3ASR (Mus musculus, UniProt P23979, V150A).
T4 sequence (P23979 24-483 isoform P23979-2 V150A): T1 sequence (P23979 24-483 isoform P23979-2 V144A) with A121V, V127A
Kind of test: [^3H]granisetron saturation binding, V149A receptor.

In test [5] the target is T5, V141A mutant mouse 5-HT3ASR (Mus musculus, UniProt P23979, V142A).
T5 sequence (P23979 24-483 isoform P23979-2 V142A): T1 sequence (P23979 24-483 isoform P23979-2 V144A) with V119A, A121V
Kind of test: [^3H]granisetron saturation binding, V141A receptor. Particulars: ± SE.

The test system of test [6] is Q150A – K153A mutant mouse 5-HT3ASRs. The test is described as follows: [^3H]granisetron saturation binding, Q150A – K153A receptors.

Residue numbers refer to the chain shown, from its start.

As to `CN1C2CCCC1CC(NC(=O)c1nn(C)c3ccccc13)C2` (centres unmarked) [[^3H]granisetron], the Bmax in test [1] is recorded as 1.1 ± .04 pmol/mg protein; in test [2], 0.44 ± .08 pmol/mg protein; in test [3], 1.0 ± .16 pmol/mg protein; in test [5], 0.32 ± .04 pmol/mg protein. The “Hill coefficient (n)” value in test [1] came out at 0.97 ± 0.13; in test [5], 1.3 ± 0.22. For the same molecule, the “binding of [^3H]granisetron” value in test [4] is listed as “No detectable binding”. Further, in test [6], the “decrease in binding affinity (increased Kd), mutant vs wildtype” value is 6 – 8 fold.

These data come from article PMC117120 (BMC Biochemistry, 2002).
